Results on 22 compounds are retold here after patent publication US11066414B2, “Cot modulators and methods of use thereof” (Gilead Sciences, Inc., priority 2015, dated 2021).

Like-named read-outs stand apart in the source and are kept apart here.

One assay concerns TNFα. The assay can be described thus: Cot Monocyte TNFα Cell Based Assay.
A further assay concerns the target Human Cot (Homo sapiens (Human), UniProt P41279). The assay can be described thus: High Throughput Cot Biochemical Assay.
The mark [1] stands for this setting: read-out: EC50 TNF, LPS-stimulated human monocytes, TNFα TR-FRET.
Setting [2] is: read-out: IC50 HTRF, Cot HTRF (TR-FRET KinEASE) biochemical assay, 400 μM ATP.
[3] abbreviates: read-out: EC50 TNF, LPS-stimulated human monocytes, TNFα.
Setting [4] is: read-out: IC50 HTRF, Cot HTRF (TR-FRET) biochemical assay.
The mark [5] stands for this setting: Homo sapiens, Monocyte, read-out: EC50 TNF, LPS-stimulated human monocytes, TNFα.
[6] abbreviates: IC50 HTRF, Cot HTRF (TR-FRET) biochemical assay.
[7] abbreviates: Homo sapiens, Monocyte, read-out: EC50 TNF, LPS-stimulated human monocytes, TNFα TR-FRET.
Where [8] appears, read: IC50 HTRF, Cot HTRF (TR-FRET KinEASE) biochemical assay, 400 μM ATP.

Sequence of Human Cot (P41279 30-397): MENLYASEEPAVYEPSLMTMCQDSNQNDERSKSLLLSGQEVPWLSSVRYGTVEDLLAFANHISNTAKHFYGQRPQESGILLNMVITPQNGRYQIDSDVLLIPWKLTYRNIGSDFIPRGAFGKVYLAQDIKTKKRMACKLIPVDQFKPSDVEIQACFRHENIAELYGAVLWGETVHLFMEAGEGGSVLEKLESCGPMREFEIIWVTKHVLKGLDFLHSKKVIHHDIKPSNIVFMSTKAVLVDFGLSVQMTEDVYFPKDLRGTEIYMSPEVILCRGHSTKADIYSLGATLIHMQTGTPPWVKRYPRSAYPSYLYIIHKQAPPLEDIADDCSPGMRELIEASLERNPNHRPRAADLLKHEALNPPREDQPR

The term EC50 denotes the concentration that produces a half-maximal response. By IC50 is commonly meant the concentration that inhibits the measured activity by half. For the compound `COc1nccc2c([C@H](Nc3cc(Cl)c4ncc(C#N)c(NCC(C)(C)C)c4c3)c3cn(C4(C)CC4)nn3)cccc12` [Example 913, (S)-8-chloro-6-(((1-methoxylsoquinolin-5-yl)(1-(1-methylcyclopropyl)-1H-1,2,3-triazol-4-yl)methyl)amino)-4-(neopentylamino)quinoline-3-carbonitrile], the EC50 in the assay on TNFα (setting [1]) worked out at 86 nM. Further, the 50% inhibitory concentration (IC50) at Human Cot (setting [2]) was 6 nM.
On the same counts, the results for `COc1nccc2c([C@H](Nc3cc(Cl)c4ncc(C#N)c(NCC(C)(C)C)c4c3)c3nnn(C4(C(F)(F)F)CC4)c3F)cccc12` [Example 922, (S)-8-chloro-6-(((5-fluoro-1-(1-(trifluoromethyl)cyclopropyl)-1H-1,2,3-triazol-4-yl)(1-methoxylsoquinolin-5-yl)methyl)amino)-4-(neopentylamino)quinoline-3-carbonitrile] are 225 nM and 11 nM.
As to `N#Cc1cnc2c(Cl)cc(N[C@@H](c3cccnc3)c3cn(C4COC4)nn3)cc2c1N[C@H](CCO)c1ccccc1` [Example 183, 8-chloro-4-(((R)-3-hydroxy-1-phenylpropyl)amino)-6-(((S)-(1-(oxetan-3-yl)-1H-1,2,3-triazol-4-yl)(pyridin-3-l)methyl)amino)-quinoline-3-carbonitrile], in the assay with TNFα (setting [3]), the EC50 is more than 10000 nM. Moreover, the half-inhibitory concentration (IC50) at Human Cot (setting [4]) is 357 nM.
On to `Cc1nc(Cl)ccc1[C@H](Nc1cc(Cl)c2ncc(C#N)c(Nc3ccc(F)c(Cl)c3)c2c1)c1cn(CCO)nn1` [Example 328, (S)-8-chloro-6-(((6-chloro-2-methylpyridin-3-yl)(1-(2-hydroxyethyl)-1H-1,2,3-triazol-4-yl)methyl)amino)-4-((3-chloro-4-fluorophenyl)amino)-quinoline-3-carbonitrile], for which the EC50 in the assay with TNFα (setting [5]) amounted to 272 nM. In addition, half-maximal inhibition against Human Cot (setting [6]) (IC50) was put at 4 nM.
For `CC(C)(CNc1c(C#N)cnc2c(C#N)cc(N[C@H](c3cn(C45CC(C4)C5)nn3)c3cccc4ncccc34)cc12)C(F)(F)F` [Example 897, (S)-6-(((1-(bicyclo[1.1.1]pentan-1-yl)-1H-1,2,3-triazol-4-yl)(quinolin-5-yl)methyl)amino)-4-((3,3,3-trifluoro-2,2-dimethylpropyl)amino)quinoline-3,8-dicarbonitrile], the EC50 with TNFα (setting [7]) was 18 nM. Also, the 50% inhibitory concentration (IC50) against Human Cot (setting [8]) was determined as 2 nM.
On to `CC(C)(C)CNc1c(C#N)cnc2c(Cl)cc(N[C@H](c3cn(C4CC4)nn3)c3cncc4cnccc34)cc12` [Example 466, (S)-8-chloro-6-(((1-cyclopropyl-1H-1,2,3-triazol-4-yl)(2,7-naphthyridin-4-yl)methyl)amino)-4-(neopentylamino)-quinoline-3-carbonitrile], for which, in the assay on TNFα (setting [5]), the concentration giving a half-maximal response (EC50) is 926 nM. On Human Cot (setting [6]), this compound showed a half-inhibitory concentration (IC50) of 28 nM.
On the same counts, the results for `Cn1cc2c([C@H](Nc3cc(Cl)c4ncc(C#N)c(NCC(C)(C)C)c4c3)c3cn(C4CC4)nn3)cccc2n1` [Example 426, (S)-8-chloro-6-(((1-cyclopropyl-1H-1,2,3-triazol-4-yl)(2-methyl-2H-indazol-4-yl)methyl)amino)-4-(neopentylamino)-quinoline-3-carbonitrile] are 95 nM and 2 nM.
On to `CC(C)(C)N1CCC(n2cc([C@@H](Nc3cc(Cl)c4ncc(C#N)c(Nc5ccc(F)c(Cl)c5)c4c3)c3ccc(F)nc3)nn2)CC1` [Example 347, (S)-6-(((1-(1-(tert-butyl)piperidin-4-yl)-1H-1,2,3-triazol-4-yl)(6-fluoropyridin-3-yl)methyl)amino)-8-chloro-4-((3-chloro-4-fluorophenyl)amino)quinoline-3-carbonitrile], for which the EC50 with TNFα (setting [5]) was 278 nM. The IC50 against Human Cot (setting [6]) turned out to be 4 nM.
On the same counts, the results for `Cc1ncsc1[C@H](Nc1cc(C#N)c2ncc(C#N)c(NCC(C)(C)C)c2c1)c1cn(C2(C(F)F)CC2)nn1` [Example 640, (R)-6-(((1-(1-(difluoromethyl)-cyclopropyl)-1H-1,2,3-triazol-4-yl)(4-methylthiazol-5-yl)methyl)amino)-4-(neopentylamino)quinoline-3,8-dicarbonitrile] are 65 nM and 3 nM.
As to `CC(C)n1cc([C@@H](Nc2cc(Cl)c3ncc(C#N)c(Nc4ccc(F)c(Cl)c4)c3c2)c2cccn3nccc23)nn1` [Example 157, (S)-8-chloro-4-((3-chloro-4-fluorophenyl)amino)-6-(((1-isopropyl-1H-1,2,3-triazol-4-yl)(pyrazolo[1,5-a]pyridin-4-yl)methyl)amino)-quinoline-3-carbonitrile], the EC50 in the assay on TNFα (setting [5]) was found to be 127 nM. Besides, at Human Cot (setting [6]), it took 5 nM to reach half-maximal inhibition (IC50).
For the compound “6-(((S)-(1-((1R,2R)-2- (difluoromethyl)cyclopropyl)- 1H-1,2,3-triazol-4-yl)(6-fluoro- 2-methylpyridin- 3-yl)methyl)amino)-4- [Example 834]”, in the assay with TNFα (setting [1]), the half-maximal effective concentration (EC50) stood at 68 nM. The IC50 at Human Cot (setting [2]) stood at 5 nM.
Consider `CC(C)(CNc1c(C#N)cnc2c(Cl)cc(N[C@H](c3cn(C45CC(C4)C5)nn3)c3ccc(F)c4ncccc34)cc12)C(F)(F)F` [Example 917, (S)-6-(((1-(bicyclo[1.1.1]pentan-1-yl)-1H-1,2,3-triazol-4-yl)(8-fluoroquinolin-5-yl)methyl)amino)-8-chloro-4-((3,3,3-trifluoro-2,2-dimethylpropyl)amino)quinoline-3-carbonitrile], for which, in the assay on TNFα (setting [7]), the EC50 came to 31 nM. At Human Cot (setting [8]), the half-inhibitory concentration (IC50) was 3 nM.
`Cc1nc(F)ccc1[C@H](Nc1cc(C#N)c2ncc(C#N)c(NCC(C)(C)C)c2c1)c1cn(C2(C(N)=O)CC2)nn1` [Example 490, (S)-1-(4-(((3,8-dicyano-4-(neopentylamino)-quinolin-6-yl)amino)(6-fluoro-2-methylpyridin-3-yl)methyl)-1H-1,2,3-triazol-1-yl)cyclopropane-1-carboxamide]: the 50% effective concentration (EC50) in the assay on TNFα (setting [5]) was 1000 nM. On Human Cot (setting [6]), the IC50 came out at 1 nM.
On to `CC(C)(C)CNc1c(C#N)cnc2c(Cl)cc(N[C@H](c3cn(C4(C(F)(F)F)CC4)nn3)c3cccc4nccnc34)cc12` [Example 734, (S)-8-chloro-4-(neopentylamino)-6-((quinoxalin-5-yl(1-(1-(trifluoromethyl)-cyclopropyl)-1H-1,2,3-triazol-4-yl)methyl)amino)quinoline-3-carbonitrile], for which, in the assay with TNFα (setting [5]), the 50% effective concentration (EC50) was 313 nM. Besides, the IC50 against Human Cot (setting [6]) is 41 nM.
For `Cc1nc(F)ccc1[C@H](Nc1cc(C#N)c2ncc(C#N)c(NCC(C)(C)C(F)(F)F)c2c1)c1nnn(C23CC(C2)C3)c1F` [Example 861, (S)-6-(((1-(bicyclo[1.1.1]pentan-1-yl)-5-fluoro-1H-1,2,3-triazol-4-yl)(6-fluoro-2-methylpyridin-3-yl)methyl)amino)-4-((3,3,3-trifluoro-2,2-dimethylpropyl)amino)quinoline-3,8-dicarbonitrile], the concentration for a half-maximal effect (EC50) with TNFα (setting [7]) turned out to be 40 nM. Also, half-maximal inhibition on Human Cot (setting [8]) (IC50) required 7 nM.
With `CC(C)(C)CNc1c(C#N)cnc2c(Cl)cc(N[C@H](c3cn(C4(C(N)=O)CC4)nn3)c3cccc4ncccc34)cc12` [Example 565, (S)-1-(4-(((8-chloro-3-cyano-4-(neopentyl-amino)quinolin-6-yl)amino)(quinolin-5-yl)methyl)-1H-1,2,3-triazol-1-yl)cyclo-propane-1-carboxamide], the EC50 in the assay with TNFα (setting [5]) was determined as 306 nM. For the same compound, the IC50 against Human Cot (setting [6]) was 2 nM.
On the same counts, the results for `CCN1Cc2ccc([C@H](Nc3cc(Cl)c4ncc(C#N)c(Nc5ccc(F)c(Cl)c5)c4c3)c3cn(C4CCN(C(C)(C)C)CC4)nn3)cc2C1` [Example 58, (S)-6-(((1-(1-(tert-butyl)piperidin-4-yl)-1H-1,2,3-triazol-4-yl)(2-ethylisoindolin-5-yl)methyl)amino)-8-chloro-4-((3-chloro-4-fluorophenyl)amino)quinoline-3-carbonitrile] are 2980 nM and 72 nM.
In the same order, the values of `N#Cc1cnc2c(Cl)cc(N[C@@H](C3=CCOCC3)c3cn(C4COC4)nn3)cc2c1Nc1ccc(Cl)c(Cl)c1F` [Example 210, (S)-8-chloro-4-((3,4-dichloro-2-fluorophenyl)amino)-6-(((3,6-dihydro-2H-pyran-4-yl)(1-(oxetan-3-yl)-1H-1,2,3-triazol-4-yl)methyl)amino)quinoline-3-carbonitrile] are 424 nM and 10 nM.
Regarding `Cc1ncccc1[C@H](Nc1cc(Cl)c2ncc(C#N)c(Nc3ccc(F)c(Cl)c3)c2c1)c1cn(C2CCN(C(C)(C)C)CC2)nn1` [Example 283], the concentration giving a half-maximal response (EC50) with TNFα (setting [3]) was determined as 50 nM. Besides, at Human Cot (setting [4]), the 50% inhibitory concentration (IC50) was determined as 3 nM.
For `Cc1nc(F)ccc1[C@H](Nc1cc(Cl)c2ncc(C#N)c(NCC(C)(C)C)c2c1)c1cn(C(C)(C)C(F)F)nn1` [Example 545, (S)-8-chloro-6-(((1-(1,1-difluoro-2-methylpropan-2-yl)-1H-1,2,3-triazol-4-yl)(6-fluoro-2-methylpyridin-3-yl)methyl)-amino)-4-(neopentylamino)quinoline-3-carbonitrile], the EC50 in the assay with TNFα (setting [5]) is 108 nM. In addition, on Human Cot (setting [6]), the 50% inhibitory concentration (IC50) is 4 nM.
On the same counts, the results for `Cn1cnc2c([C@H](Nc3cc(Cl)c4ncc(C#N)c(NCC(C)(C)C)c4c3)c3cn(C4(C(F)(F)F)CC4)nn3)cccc21` [Example 520, (S)-8-chloro-6-(((1-methyl-1H-benzo[d]imidazol-4-yl)(1-(1-(trifluoromethyl)cyclopropyl)-1H-1,2,3-triazol-4-yl)methyl)amino)-4-(neopentylamino)quinoline-3-carbonitrile] are 926 nM and 123 nM.
On the same counts, the results for `CC(C)(C)N1CCC(n2cc([C@@H](Nc3cc(Cl)c4ncc(C#N)c(Nc5ccc(F)c(Cl)c5)c4c3)c3ccc4c(c3)CNC4)nn2)CC1` [Example 57, (S)-6-(((1-(1-(tert-butyl)piperidin-4-yl)-1H-1,2,3-triazol-4-yl)(isoindolin-5-yl)methyl)amino)-8-chloro-4-((3-chloro-4-fluorophenyl)amino)quinoline-3-carbonitrile] are 5990 nM and 60 nM.
